According to patent US20040220297A1, “Self curing cements” (priority 1999, published 2004):

Assay: Cytotoxicity tests
Format: cell-based

Compound: CCCCCCCC/C=C\CCCCCCCC(=O)OCc1ccc(N(C)C)cc1 [DMAO, 4-N,N-dimethylaminobenzyloleate]
- cytotoxicity: non-toxic
